{"source": "patent US10179770B2", "about": "“Quinolines derivatives as novel anticancer agents” (GENOSCIENCE PHARMA, priority 2013, dated 2019)", "key": {"A375 cell line": {"test_system": "A375 cell line", "assay": "Combination of XIX-3 and Zelboraf, Bliss independence model", "format": "cell-based, human", "conditions": "XIX-3 associated with Zelboraf, 72 h", "protocol": "The human melanoma cell lines A375 cultured in Dulbecco's modified Eagle's medium supplemented with 10% Fetal Bovine Serum and 1% Penicillin-Streptomycin and maintained at 37° C. with 5% CO2.\nA375 cells were plated at 800 cells per well onto 96-well plates in 90 μL of media per well and were allowed to grow overnight before the assay. XIX-3 and Zelboraf, a compound used for treatment for BRAF V600E mutation-positive metastatic melanoma, were added at different concentrations (combinations of five concentrations of XIX-3 and six concentrations of Zelboraf) to each well, and cell cultures were incubated for 72 h. Vehicle (H2O) was used as a control, and all compounds were tested in a constant percentage of vehicle. Cell outgrowth was measured using a […] Aqueous One Solution Cell Proliferation Assay (Promega) and a TECAN Sunrise plate reader. […] The effects of drug-drug combinations are evaluated in the Bliss independence model (Prichard M. N. and Shipman C. Jr. Antivir. Res. 1990 (14) 181-205; Prichard, M. L. et al. Antimicrob Agents Chemother 1993 (37) 540-545). The theoretical additive effect is calculated from the dose-response curves of individual compounds by the equation: Z=X+Y(1−X) (7) Where: • Z represents the total inhibition produced by the combination of drugs X and Y. • X and Y represent the inhibition produced by drugs X and Y alone, respectively. […]"}, "HL-60": {"test_system": "HL-60", "assay": "NCI-60 screen (SRB)", "format": "cell-based", "conditions": "HL-60 (Leukemia)", "procedure,_shortened": "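First, cells are seeded and incubated for 24 h, when time-zero plates are fixed. Next, drug is added at five concentrations and incubation continues 48 h. Finally, cells are TCA-fixed, SRB-stained and read at 515 nm to calculate percent growth.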"}}, "data": [{"smiles": "CCN(CC)C1CCN(C(C)c2cc(-c3ccccc3)nc3ccccc23)CC1.Cl.Cl", "note": "(centres unmarked) [XIX-3, 2-phenyl-4-{1-[4-(N,N-diethylamino)piperidin-1-yl]-eth-1-yl}quinoline dihydrochloride]", "values": [{"measurement": "Combination effect on cell viability (Bliss independence model)", "setting": "A375 cell line", "value": "additive effect (between −20% to +20% indicates additive effect)"}, {"measurement": "TGI", "setting": "HL-60", "value": 33, "unit": "µM"}, {"measurement": "Growth percent at 10 μM", "setting": "HL-60; 10 μM", "value": "++ (cell growth 40 > % < 60)"}, {"measurement": "GI50", "setting": "HL-60; Homo sapiens", "value": 17, "unit": "µM"}, {"measurement": "CC50", "setting": "HL-60; Homo sapiens, read-out: LC50 (the source's name)", "value": 66, "unit": "µM"}]}]}
